Assays:
Assay type in all cases: cell-based
OR10/OR7 = OR10/OR7 (Anopheles gambiae, UniProt B5U0U7+Q7QCC7); assay: Ca2+-imaging of stable HEK293T cell line OR10/OR7; conditions: for inhibition at 4 µM: HEK-293T, compound applied at 4 μM, read-out: Percent Inhibition OR10 OR7; for IC50: Table B, read-out: IC50 OR10
Experimental: Stable cell lines OR1/OR7, OR2/OR7, OR8/OR7, OR10/OR7, OR28/OR7 and TRPM8 were generated from HEK293T cells. HEK293T-based cell lines were cultured in DMEM supplemented with these additional antibiotics: 6 μg/mL blasticidin and 1 μg/mL puromycin, with the exception of the TRPM8 cell lines, which was cultured in DMEM supplemented with 1 μg/mL puromycin.
After one day of incubation, the transfected cells were transferred into 10 cm dishes with DMEM containing antibiotics as follows: • 0.5 μg/mL of blasticidin for OR1/OR7, OR2/OR7, OR8/OR7, OR10/OR7, OR28/OR7 • 0.2 μg/mL of puromycin for TRPM8.
(§1) Stable cell lines were cultured in 10 cm dishes, and confluent cells (70-80%) were trypsinized. 10,000 cells/20 μL were transferred into each well of 384-well plates coated with poly-D-lysine, and cultured for 2 days. For Flip-In T-Rex cells (cell lines expressing Or47a/Or83b and 5HT3), 5 μL of tetracycline (5 μg/mL) were added 1 day before the assay. 20 μL of Ca-4 dye was loaded into each well for 1.5 hr at room temperature in the dark, and the dye-loaded plates were subjected to Ca^2+-imaging using a Hamamatsu FDSS6000 real time fluorescence plate reader. Odorant solutions (9× final concentration) were prepared by dissolving 1M stock solutions into Hank's Buffered Salt Solution (HBSS), and 30 μL of odor solution was transferred to each well in 384-well plates.
(§2) Compounds ([…] in DMSO) were stored in 384-well plates, and last two columns (32 wells total) contained only DMSO. 200 nL of small compounds were transferred into the odorant plates before the assay using the Perkin-Elmer Janus workstation. The odorant plates were spun down to remove air bubbles, and placed on the FDSS6000 plate loader, and 5 μL of odorant solution was applied to the cell plate on the FDSS6000. Ca^2+ increase was monitored with fluorescence at 525 nm by excitation at 485 nm.

mOREG = target: T1, mOREG (Mus musculus, UniProt Q920P2); assay: Ca2+-imaging, control receptor mOREG; conditions: for inhibition at 4 µM: compound applied at 4 μM, read-out: Percent Inhibition mOREG; for IC50: Table B
T1 sequence (Q920P2 1-313): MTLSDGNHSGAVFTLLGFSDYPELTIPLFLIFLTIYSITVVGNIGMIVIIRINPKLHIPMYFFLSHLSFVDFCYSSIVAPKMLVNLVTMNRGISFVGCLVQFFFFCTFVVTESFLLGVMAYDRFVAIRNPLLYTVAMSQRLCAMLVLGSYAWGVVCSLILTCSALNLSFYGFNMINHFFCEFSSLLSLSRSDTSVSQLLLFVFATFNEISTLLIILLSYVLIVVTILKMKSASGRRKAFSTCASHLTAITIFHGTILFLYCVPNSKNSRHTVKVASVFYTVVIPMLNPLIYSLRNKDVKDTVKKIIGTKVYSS
Experimental: as §1, with “plates. The last two columns of the plate (32 wells total) were used as control wells as follows: • negative control with HBSS buffer (16 wells) • positive control with ligands (16 wells).” for “plates.”
as §2

[1] = target: T2, serotonin receptor (5HT3) (Mus musculus, UniProt P23979); assay: Ca2+-imaging of stable Flip-In T-Rex cell line 5HT3; conditions: for inhibition at 4 µM: compound applied at 4 μM, read-out: Percent Inhibition 5HT3; for IC50: Table B, read-out: IC50 5HT3
T2 construct: Full-length cDNAs for mosquito (Anopheles gambiae) odorant receptor; expressed in transfected cells
T2 sequence (P23979 24-489): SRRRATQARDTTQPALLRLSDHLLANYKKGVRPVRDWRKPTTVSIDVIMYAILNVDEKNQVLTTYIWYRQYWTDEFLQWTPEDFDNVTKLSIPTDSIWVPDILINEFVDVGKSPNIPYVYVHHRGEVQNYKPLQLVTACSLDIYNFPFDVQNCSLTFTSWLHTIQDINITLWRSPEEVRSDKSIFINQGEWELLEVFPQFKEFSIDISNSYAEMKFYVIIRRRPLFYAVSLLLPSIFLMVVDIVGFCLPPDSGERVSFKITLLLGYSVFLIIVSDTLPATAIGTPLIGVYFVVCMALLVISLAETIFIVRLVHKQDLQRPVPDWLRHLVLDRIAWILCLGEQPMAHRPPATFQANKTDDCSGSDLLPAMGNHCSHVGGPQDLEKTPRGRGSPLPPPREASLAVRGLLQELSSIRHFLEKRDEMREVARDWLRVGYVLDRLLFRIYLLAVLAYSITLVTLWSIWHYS
Experimental: Full-length cDNAs for mosquito (Anopheles gambiae) odorant receptor (OR1, OR2, OR7, OR8, OR28), and fly (Drosophila melanogaster) odorant receptor (Or47a, Or83b), mouse TRP channel (TRPM8), and mouse serotonin receptor (5HT3) were obtained and subcloned into mammalian expression vectors. The following mammalian expression vectors were used:
Stable cell lines Or47a/Or83b and 5HT3 were generated from Flip-In T-Rex cells. Flip-In T-Rex-based cell lines were cultured in DMEM supplemented with these additional antibiotics: 6 μg/mL blasticidin and 100 μg/mL hygromycin.
Cells were trypsinized and split into 35 mm dishes 1 day before transfection. Confluent cells (60-70%) in 35 mm dishes were co-transfected with 1 μg of Or47a/Or83b plasmid in pcDNA5/FRT/TO/IRES plus the pOG44 plasmid or 1 μg of 5HT3 plasmid in pcDNA5/FRT/TO plus the pOG44 plasmid using lipofectamine 2000. Co-transfection of pOG44 and pcDNA5/FRT/TO/IRES or pcDNA5/FRT/TO allows expression of Flp recombinase and integration of the pcDNA5 plasmid into the genome via the FRT site. After one day of incubation, the transfected cells were transferred into 10 cm dishes with DMEM containing antibiotics: 20 μg/mL of hygromycin and 6 μg/mL of blasticidin. The concentration of Hygromycin was increased to 100 μg/mL when the population of cells became 30-40% confluent. The cells were cultured by changing medium every two days until cell clumps appeared. The clumps were picked and transferred into 96 well plates with DMEM containing 100 μg/mL of Hygromycin and 6 μg/mL of blasticidin. The cells were grown and transferred to 24 well plates, and ligand-evoked calcium increases were tested using the Hamamatsu FDSS6000 real time fluorescence plate reader.
as §1, §2

Chain of OR10/OR7 (Q7QCC7 whole entry): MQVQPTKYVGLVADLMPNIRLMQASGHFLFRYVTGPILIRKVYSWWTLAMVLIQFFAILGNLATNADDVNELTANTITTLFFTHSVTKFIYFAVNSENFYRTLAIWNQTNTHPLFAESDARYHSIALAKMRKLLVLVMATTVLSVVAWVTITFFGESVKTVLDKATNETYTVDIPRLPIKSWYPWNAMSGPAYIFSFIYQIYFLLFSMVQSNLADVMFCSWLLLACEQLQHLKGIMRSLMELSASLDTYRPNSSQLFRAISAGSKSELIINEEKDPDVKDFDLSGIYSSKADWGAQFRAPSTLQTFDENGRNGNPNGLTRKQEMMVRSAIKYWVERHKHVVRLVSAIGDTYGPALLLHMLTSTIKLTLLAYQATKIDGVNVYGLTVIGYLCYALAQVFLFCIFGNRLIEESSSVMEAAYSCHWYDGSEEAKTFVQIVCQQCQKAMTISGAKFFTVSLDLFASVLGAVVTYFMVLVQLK
Chain of OR10/OR7 (B5U0U7 entry or part of it): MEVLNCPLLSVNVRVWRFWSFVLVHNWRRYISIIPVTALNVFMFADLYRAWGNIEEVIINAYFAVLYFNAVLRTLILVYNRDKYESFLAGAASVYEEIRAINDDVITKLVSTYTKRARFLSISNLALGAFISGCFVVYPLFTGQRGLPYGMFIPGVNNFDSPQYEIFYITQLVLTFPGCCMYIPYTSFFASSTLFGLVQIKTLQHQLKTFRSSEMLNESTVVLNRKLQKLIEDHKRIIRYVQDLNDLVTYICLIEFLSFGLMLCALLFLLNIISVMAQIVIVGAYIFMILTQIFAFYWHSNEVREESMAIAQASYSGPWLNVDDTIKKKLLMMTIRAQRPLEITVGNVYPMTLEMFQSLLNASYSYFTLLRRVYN

Structure (SMILES) | inhibition at 4 µM (OR10/OR7) [%] | inhibition at 4 µM (mOREG) [%] | inhibition at 4 µM [1] [%] | IC50 (OR10/OR7) [µM] | IC50 (mOREG) [µM] | IC50 [1] [µM]
CCOC(=O)c1c(NC(C)=O)c(-c2ccc(OC)cc2)cn1Cc1ccccc1 [RU-0077733] | 26 to 50 | < 25 | < 25 |  |  | 
COCCCN(Cc1c(-c2ccccc2)noc1N1CCC(C)CC1)C(=O)c1ccccc1F [RU-0036876] | < 25 | 26 to 50 | 26 to 50 |  |  | 
CCOC(=O)CCC(=O)N(CCc1ccccc1)CC(=O)Nc1cc(C(C)(C)C)nn1-c1ccccc1C [RU-0072462] | 26 to 50 | < 25 | < 25 |  |  | 
O=C(c1cccnc1Cl)N1CCOC(COCc2c(Cl)cccc2Cl)C1 (stereo not drawn) [RU-0050372] | 26 to 50 | < 25 | < 25 |  |  | 
CN(C)c1ccc(C(=O)N2CCOC(COCc3ccccc3F)C2)cc1 (stereo not drawn) [RU-0050325] | < 25 | < 25 | < 25 |  |  | 
N#Cc1ccccc1C(=O)N1CCOC(COCc2c(Cl)cccc2Cl)C1 (stereo not drawn) [RU-0050405] | 26 to 50 | < 25 | < 25 | > 1 |  | 
CCn1c(C)c(C(=O)CN(CC2CCCO2)C(=O)C2C[C@H]2c2ccccc2)c(C)c1C(=O)OC (stereo partly drawn) [RU-0071273] | 51 to 74 | 26 to 50 | 26 to 50 | < 0.1 | 0.1 to 1 | 
C=CCN(Cc1nccn1Cc1ccc(Cl)c(Cl)c1)C(=O)c1ccccc1F [RU-0047955] | > 75 | < 25 | < 25 | < 0.1 |  | 
COc1cccc(-c2nnc(SCCCC(=O)N3CCN(C(=O)CC(C)(C)C)C(C)C3)n2-c2ccc(C)cc2)c1 (stereo not drawn) [RU-0071818] | 51 to 74 | 51 to 74 | < 25 | > 1 | > 1 | 
O=C(c1cccc(F)c1)N(Cc1c(-c2ccccc2)noc1N1CCCC1)CC1CCCO1 (stereo not drawn) [RU-0037434] | 26 to 50 | 26 to 50 | 26 to 50 |  |  | 
O=C(Cc1cccc(F)c1)N1CCOC(COCc2c(Cl)cccc2Cl)C1 (stereo not drawn) [RU-0050398] | < 25 | < 25 | < 25 |  |  | 
O=C(c1c(F)c(F)cc(F)c1F)N1CCOC(Cc2ccccc2)C1 (stereo not drawn) [RU-0050393] | 51 to 74 | 26 to 50 | 26 to 50 | > 1 |  | 
COCCCN(Cc1c(-c2ccccc2)noc1N1CCCC1)C(=O)c1ccc(F)cc1 [RU-0037386] | 26 to 50 | 26 to 50 | 26 to 50 |  |  | 
Cc1ccccc1C(=O)N[C@@H]1CCCCC1NC(=O)C1CCN(C(=O)C23CC4CC(CC(C4)C2)C3)CC1 (stereo partly drawn) [RU-0045351] | < 25 | 26 to 50 | < 25 |  |  | 
CC(=O)OCC(=O)NCC1Cc2cc(Oc3ccccc3)ccc2O1 (stereo not drawn) [RU-0079120] | > 75 | < 25 | 26 to 50 | < 0.1 |  | 
O=C(c1ccco1)N(Cc1ccco1)Cc1nccn1Cc1ccccc1F [RU-0047694] | 51 to 74 | < 25 | 26 to 50 | < 0.1 |  | 
COCCN(Cc1c(-c2ccccc2)noc1N1CCSCC1)CC(O)COCc1ccco1 (stereo not drawn) [RU-0037278] | 26 to 50 | 26 to 50 | 26 to 50 |  |  | 
CCc1cc(N2CCCC2)nc(SCc2ccc(C(=O)N3CCOCC3)o2)n1 [RU-0047568] | > 75 | 26 to 50 | 26 to 50 | < 0.1 |  | 
O=C(NCCC(=O)N1CCOC(COCc2ccc(F)cc2Cl)C1)OCc1ccccc1 (stereo not drawn) [RU-0050344] | 26 to 50 | 26 to 50 | < 25 |  |  | 
Cc1ccc(-c2nnc(SCCCC(=O)N3CCN(C(=O)c4cccc(F)c4)C(C)C3)n2-c2ccc(C)cc2)cc1 (stereo not drawn) [RU-0071789] | > 75 | 26 to 50 | 26 to 50 | < 0.1 |  | 
Cc1cc(N(C)C2CCCCC2)nc(SCc2cccc(C(=O)N3CCCC3)c2)n1 [RU-0034108] | 26 to 50 | < 25 | < 25 |  |  | 
O=C(c1ccco1)N(Cc1nccn1Cc1ccccc1Cl)CC1CC1 [RU-0047281] | > 75 | 26 to 50 | > 75 |  |  | 0.1 to 1
CCN(CC)c1onc(-c2ccccc2)c1CN(CC1CCCO1)C(=O)c1ccc2c(c1)OCO2 (stereo not drawn) [RU-0036875] | 26 to 50 | 51 to 74 | 51 to 74 |  | > 1 | > 1
COc1ccc(-c2cc(-c3ccccc3)n(C(=O)CN3CCN(Cc4ccccc4)CC3)n2)cc1 [RU-0038795] | < 25 | 26 to 50 | 51 to 74 |  |  | > 1
CCc1c(C(=O)NCc2cccnc2)cnn1-c1ccccc1 [RU-0048504] | 51 to 74 | < 25 | < 25 | < 0.1 |  | 
Cc1nn(-c2ccc(Cl)cc2)c(C)c1C(=O)NCc1ccccn1 [RU-0048608] | 51 to 74 | < 25 | < 25 | > 1 |  | 
Cc1ccccc1C(=O)N[C@@H]1CCCCC1NC(=O)C1CCN(C(=O)c2ccc(C(C)(C)C)cc2)CC1 (stereo partly drawn) [RU-0045678] | > 75 | 26 to 50 | 26 to 50 | > 1 |  | 
